Experimental data: US6979686B1, “Substituted pyrazoles as p38 kinase inhibitors” (Pharmacia Corporation, priority 2001, dated 2005)
Structures can show the parent of a compound that is named as a salt. Where two headings read alike, the source gives them in different places.

Biological target: T1, human p38 kinase alpha (Homo sapiens, UniProt Q16539)
T1 construct: GST (N, cleaved yes); made in house; host or cells: E. coli DH10B
Experiment: p38 kinase in vitro assay, phosphorylation of biotinylated PHAS-I with 32P-ATP
Format: biochemical

[1] = in vitro P38-alpha kinase inhibition, read-out: P38 alpha kinase IC50
[2] = in vitro P38-alpha kinase, read-out: P38 alpha kinase IC50

T1 sequence (Q16539 whole entry): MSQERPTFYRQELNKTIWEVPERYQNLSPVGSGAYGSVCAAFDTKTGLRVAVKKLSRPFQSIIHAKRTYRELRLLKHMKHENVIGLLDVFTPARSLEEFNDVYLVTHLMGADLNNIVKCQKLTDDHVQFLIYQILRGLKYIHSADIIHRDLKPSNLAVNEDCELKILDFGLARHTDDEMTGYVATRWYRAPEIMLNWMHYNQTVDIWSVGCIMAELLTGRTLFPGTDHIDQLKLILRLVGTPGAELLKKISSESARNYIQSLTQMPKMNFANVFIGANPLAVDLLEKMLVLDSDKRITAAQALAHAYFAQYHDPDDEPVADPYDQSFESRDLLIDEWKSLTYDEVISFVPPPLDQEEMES

SMILES: CCOC(=O)C(CCSC)NC(=O)NCCc1[nH]nc(-c2ccc(F)cc2)c1-c1ccncc1 (stereo not drawn) [Example B-0935]
- P38 alpha kinase % inhib @ conc. (uM) (@ 1.0 uM): 69.0% @

SMILES: COc1ccc(OC)c(S(=O)(=O)NC(C)c2[nH]nc(-c3ccc(F)cc3)c2-c2ccncc2)c1 (stereo not drawn) [Example B-0634]
- IC50 [1]: 600 nM

SMILES: C#CCn1nc(N2CCNCC2)c(-c2ccncc2)c1-c1ccc(Cl)cc1 [Example A-318, 1-[5-(4-chlorophenyl)-4-(4-pyridinyl)-1-(2-propynyl)-1H-pyrazol-3-yl]piperazine, trihydrochloride monohydrate]
- IC50 (Table 8, 1% DMSO, read-out: p38α Kinase Assay IC50): 290 nM

SMILES: O=C(NCCCc1[nH]nc(-c2ccc(F)cc2)c1-c1ccncc1)c1ccc(Cl)cc1Cl [Example B-1345]
- IC50 [2]: 270 nM

SMILES: Cc1cccc(S(=O)(=O)NCCCc2[nH]nc(-c3ccc(F)cc3)c2-c2ccncc2)c1 [Example B-1266]
- IC50 [2]: < 100 nM

SMILES: CC(=O)OC(C)C(=O)NC(C)c1[nH]nc(-c2ccc(F)cc2)c1-c1ccncc1 (stereo not drawn) [Example B-0542]
- IC50 [1]: 1550 nM

SMILES: COc1ccc(Br)cc1S(=O)(=O)NCc1[nH]nc(-c2ccc(F)cc2)c1-c1ccncc1 [Example B-0249]
- IC50 [2]: < 100 nM

SMILES: CCCCCc1ccc(C(=O)NCc2[nH]nc(-c3ccc(F)cc3)c2-c2ccncc2)cc1 [Example B-0012]
- inhibition at 1 µM (@ 1.0 uM, read-out: P38 alpha kinase % inhib @ conc.): 30%

SMILES: O=C(NCCCc1[nH]nc(-c2ccc(F)cc2)c1-c1ccncc1)Nc1ccccc1 [Example B-1220]
- P38 alpha kinase % inhib @ conc. (@ 1.0 uM): 81.0% @

SMILES: O=C(NCCc1[nH]nc(-c2ccc(F)cc2)c1-c1ccncc1)c1cc2ccccc2s1 [Example B-1124]
- IC50 [1]: 1490 nM

SMILES: O=C(NCCCc1[nH]nc(-c2ccc(F)cc2)c1-c1ccncc1)c1c(F)ccc(F)c1F [Example B-1332]
- IC50 [2]: 7 nM

SMILES: Cc1c(-c2ccncc2)c(-c2ccc(F)cc2)nn1CC(=O)Nc1cc(F)cc(F)c1 [Example B-2438]
- P38 alpha kinase IC50, uM or % inhib @ conc. (uM): % inhib (@ 10.0 uM): 75.0% @

SMILES: O=S(=O)(Cc1ccccc1)NC(Cc1ccccc1)c1[nH]nc(-c2ccc(F)cc2)c1-c1ccncc1 (stereo not drawn) [Example B-0711]
- IC50 [1]: 1990 nM

SMILES: O=C(NC(Cc1ccccc1)c1[nH]nc(-c2ccc(F)cc2)c1-c1ccncc1)c1ccccc1I (stereo not drawn) [Example B-0798]
- IC50 [1]: 1730 nM

SMILES: C=CCNC(=O)NCCCc1[nH]nc(-c2ccc(F)cc2)c1-c1ccncc1 [Example B-1217]
- P38 alpha kinase % inhib @ conc. (@ 1.0 uM): 87.0% @

SMILES: O=C(NCCc1[nH]nc(-c2ccc(F)cc2)c1-c1ccncc1)c1ccc(Cl)cc1Cl [Example B-1144]
- IC50 [1]: 440 nM

SMILES: O=C(NCCCc1[nH]nc(-c2ccc(F)cc2)c1-c1ccncc1)C1CCCN1 (stereo not drawn) [Example B-1232]
- P38 alpha kinase % inhib @ conc. (@ 1.0 uM): 81.0% @

SMILES: CCCC(CCC)NC(=O)Cn1nc(-c2ccc(F)cc2)c(-c2ccncc2)c1C [Example B-2356]
- P38 alpha kinase % inhib @ conc. (@ 10.0 uM): 77.0% @

SMILES: O=C(NCCc1[nH]nc(-c2ccc(F)cc2)c1-c1ccncc1)c1cccc(F)c1 [Example B-1145]
- IC50 [1]: 1070 nM

SMILES: Cc1cccc(C(=O)N2CCC(c3[nH]nc(-c4ccc(F)cc4)c3-c3ccncc3)CC2)c1 [Example B-1395]
- IC50 [2]: 1480 nM

SMILES: Cc1noc(C)c1S(=O)(=O)N1CCC(c2[nH]nc(-c3ccc(F)cc3)c2-c2ccncc2)CC1 [Example B-1435]
- IC50 [2]: 1800 nM

SMILES: COc1ccc(NC(=O)NC(Cc2ccccc2)c2[nH]nc(-c3ccc(F)cc3)c2-c2ccncc2)cc1 (stereo not drawn) [Example B-0786]
- IC50 [1]: 24000 nM

SMILES: O=S(=O)(NCc1[nH]nc(-c2ccc(F)cc2)c1-c1ccncc1)c1ccc(Br)cc1 [Example B-0224]
- IC50 [2]: < 100 nM

SMILES: Cc1c(-c2ccncc2)c(-c2ccc(F)cc2)nn1CC(=O)Nc1ccccc1C(=O)OC(C)C [Example B-2454]
- P38 alpha kinase IC50, uM or % inhib @ conc. (uM): % inhib (@ 10.0 uM): 88.0% @

SMILES: Cc1c(-c2ccncc2)c(-c2ccc(F)cc2)nn1CC(=O)Nc1ccc(OCc2ccccc2)cc1 [Example B-2437]
- P38 alpha kinase IC50, uM or % inhib @ conc. (uM): % inhib (@ 10.0 uM): 82.0% @

SMILES: Cc1c(-c2ccncc2)c(-c2ccc(F)cc2)nn1CC(=O)Nc1cc([N+](=O)[O-])cc([N+](=O)[O-])c1 [Example B-2430]
- P38 alpha kinase IC50, uM or % inhib @ conc. (uM): % inhib (@ 10.0 uM): 90.0% @

SMILES: CCCS(=O)(=O)NCCc1[nH]nc(-c2ccc(F)cc2)c1-c1ccncc1 [Example B-1021]
- P38 alpha kinase % inhib @ conc. (uM) (@ 1.0 uM): 82.0% @
